Measurements from ChEMBL document CHEMBL3507680, “University of Dundee, Gates Library screen for HepG2 cell viability”.

Assay: Human HepG2 cell viability assay in 384 well format
Format: toxicity, cell-based
Design: dose 125 nL, time 70.5 hour; concentration not given beside the values
Conditions: HepG2 cells, read-out: Inhibition

Structure (SMILES)	cytotoxicity at 70.5 h [%]
Cc1ncc(C(=O)NCCNc2ncccn2)s1	-2.18
Cc1cc(N(C)C)nc(N2CCCC2c2cc(C)on2)n1 (centres undefined)	-1.73
COc1cccc(SCCCn2cnc3c(N)ncnc32)c1	6.56
Cc1nc(CN2CCN(c3ccc(Cl)cn3)CC2)no1	-6.61
CN(C)CC1CCCCN1C(=O)c1ccc(N2CCOCC2)cc1 (centres undefined)	0.118
CCCN(Cc1cnn(C)c1)S(=O)(=O)c1cccc(F)c1C#N	-2.96
CCOc1cccc(NC(=O)c2cc[nH]n2)n1	-3.18
CCOc1cccc(NC(=O)c2cnc(C)cn2)n1	-3.9
CNC(=O)CN1CCC(CN(C)Cc2ccncc2Cl)CC1	-3.24
Cc1ccc(S(N)(=O)=O)cc1C(=O)NC1CCN(C2CC2)CC1	21.9
O=c1[nH]cnc2c1CCN(S(=O)(=O)c1cccc(OC(F)(F)F)c1)C2	-5.76
CC(=O)c1cc(Br)cc(F)c1OCC(=O)NC1CC1	0.481
CCC1CCCCCN1C(=O)c1ccc(N2CCC(O)CC2)cc1 (centres undefined)	-1.83
Cc1cc(C)nc(NC2CCC(=O)N(C)C2)n1 (centres undefined)	-8.23
COCc1cc(N(C)Cc2ncnn2C)nc(C(C)(C)C)n1	-10.6
CC(C)(C)OC(=O)N1CCC(NC2CC2)CC1	-7.1
Cc1noc(C)c1CN(C)Cc1csc(-c2ccccc2F)n1	-3.72
COCc1cc(N(C)Cc2cnccn2)nc(C(C)(C)C)n1	-12.2
COc1cccc(CNc2nc(N3CCOCC3)ns2)c1OC	15.5
O=C(NCC(=O)N1CCCC1Cc1cccc(F)c1)C1CCCC1 (centres undefined)	-1.38
Cc1cc(C)n(CCCNC(=O)NCc2c(C)cc(C)[nH]c2=O)n1	2.42

Structure (SMILES)	cytotoxicity at 70.5 h [%]
COC(=O)CC(NC(=O)c1cc(OC)c2c(c1)OCCO2)c1cccs1 (centres undefined)	-9.89
N#Cc1ccc(S(=O)(=O)NC(=O)c2csc(-c3ccco3)n2)cc1	-2.89
Cc1cc(C)n(CC(C)CNC(=O)NCc2c(C)cc(C)[nH]c2=O)n1 (centres undefined)	-10.1
C=C(C)CN1CCC(NC(=O)Nc2ccc(F)c(C(N)=O)c2)CC1	-6.42
CNS(=O)(=O)c1ccc(CNC(=O)C2CN(C)CCO2)cc1 (centres undefined)	-5.64
CNS(=O)(=O)c1ccc(CNC(=O)C2CCCN(C)C2)cc1 (centres undefined)	-6.65
CCOc1c(F)cccc1C(=O)N(c1cccnc1)C(C)C	-3.95
Cc1c(COC(C)C)cccc1NC(=O)N1CCC(N2CCCC2)C1 (centres undefined)	9
CCc1n[nH]c(NC(=O)c2ccc(Cl)cn2)c1Br	-2.17
Cc1c(COC(C)C)cccc1NC(=O)N1CC[C@H](O)C1	-6.27
CCCn1nc2c(cc1=O)CN(c1ncnc3ccsc13)CC2	-13
Cc1c(COc2ccccc2)cccc1NC(=O)N1CC[C@H](O)C1	-1.47
O=C(Cc1ccon1)N1CCN(c2ccncc2Cl)CC1	5.48
COc1ccc(CNc2nc(N3CCOCC3)ns2)cc1	-10.7
CCOc1c(F)cccc1C(=O)N(CC)C(C)c1ccncc1 (centres undefined)	-4.06
O=C(Cn1cc(C2CC2)nn1)N(Cc1ccco1)Cc1cccs1	-2.55
O=C(Cc1cccnc1)NCCSc1ccccc1F	-11.1
CCC(NCCn1cccn1)C(=O)Nc1cc(C)on1 (centres undefined)	24.9
CC(Cc1cccc(F)c1)C(=O)NS(=O)(=O)c1ccc(F)cc1 (centres undefined)	11.8
COc1ccc(OCc2nc3cc4c(cc3c(=O)o2)OCCCO4)cc1	-5.23
CSCCC(NC(N)=O)C(=O)NCc1ccc(-n2cccn2)cc1 (centres undefined)	-6.9

Structure (SMILES)	cytotoxicity at 70.5 h [%]
CN(C)c1nc(N)nc(CN2CCC(c3ccccc3)CC2)n1	-10.6
Cc1cc(CN(CC(N)=O)CC(C)C)on1	18.1
CC(C(=O)NC1(C#N)CCCCC1)N1CCc2c(ncn2C)C1 (centres undefined)	-3.36
CC(C)(C)NC(=O)C1CCCCN1Cc1nccn1CC(F)(F)F (centres undefined)	-0.987
CC(C)(C)c1cc(=O)[nH]c(C2(N)CCCC2)n1	14.1
COc1ccccc1N1CCCC(NC(=O)Nc2cccnc2)C1 (centres undefined)	8.99
COc1c(F)cc(NC(=O)N2CCC(CSC)C2)cc1F (centres undefined)	16.5
COC(CNC(=O)CNC(=O)c1ccccc1)c1cccc(Cl)c1 (centres undefined)	-2.92
CC(Cc1cccc(F)c1)C(=O)NS(=O)(=O)c1ccc2c(c1)OCCO2 (centres undefined)	19.6
Cc1cc(CNC2(CO)CCOCC2)ccc1Br	-0.894
CC(C)c1ccc(/C=C/CC(=O)NC2CCN(C(N)=O)C2)cc1 (centres undefined)	9
CC(C)c1ccc(/C=C/CC(=O)NC2CCS(=O)(=O)CC2)cc1	-1.79
CCN(CC)C1CCN(C(=O)Nc2cc(F)c(OC)c(F)c2)C1 (centres undefined)	1.91
Cc1nnc(CN(C)CC(=O)N2CCCC(C)CC2)n1C (centres undefined)	-8.63
O=C(NC1CCN(c2ccccc2OC(F)F)C1)c1cccnc1 (centres undefined)	-4.78
O=S(=O)(CCCN1CCc2c(ncn2C2CC2)C1)c1ccccc1	1.18
CN(CCCOc1ccc(F)cc1)S(=O)(=O)c1cnn(C)c1	-8.61
CN(CCCOc1ccccc1)S(=O)(=O)c1cnn(C)c1	21.2
Cc1ccc(OCCN(C)S(=O)(=O)c2cnn(C)c2)cc1	-4.35
NC(=O)NC(=O)C(c1ccccc1)N1CCN(Cc2ccccc2)CC1 (centres undefined)	1.22
COCCNC(=O)CCNc1cc(C)nc(-c2ccncc2)n1	-15.7

Structure (SMILES)	cytotoxicity at 70.5 h [%]
Cc1cc(NCCC(=O)NC2CCCC2)nc(-c2ccncc2)n1	0.777
CC(C)N1CCCC(CNC(=O)c2ccnc(-n3ccnc3)c2)C1 (centres undefined)	-4.35
Cc1ccc2c(c1)CCC2NC(=O)N1CCC(C(N)=O)CC1 (centres undefined)	-6.61
Cc1cc(NCCC(=O)NC2CCS(=O)(=O)C2)nc(-c2ccncc2)n1 (centres undefined)	-8.91
CN(CCNC(=O)c1ccnc(-n2ccnc2)c1)C1CC1	-1.87
CC(NC(=O)NCC(F)(F)F)c1nncn1C (centres undefined)	29.7
CS(=O)(=O)CCN1CCc2c(ncn2C2CC2)C1	-3.42
CN(C)CCOc1ccc(N(C)S(=O)(=O)c2cnn(C)c2)cc1	-1.43
c1ccc(C2(CNCc3cnc(N4CCOCC4)nc3)CC2)cc1	-8.71
Cc1cc(C(=O)N(CCN(C)C)Cc2ccc(Cl)cc2)no1	-0.353
Cc1ccc(CNc2ccccc2-n2ccc(C)n2)nc1	8.61
CC(C)CC(=O)NCCCc1cc(N)n(-c2ccccc2)n1	4.65
CC(CNC(=O)NCCCc1cc(N)n(-c2ccccc2)n1)N(C)C (centres undefined)	-8.44
CCc1nc(CN2CCCC(N(C)Cc3nc(C)c(C)o3)C2)no1 (centres undefined)	-74.1
CCc1nc(CN2CCCC(N(C)Cc3cnc(C)cn3)C2)no1 (centres undefined)	-71.2
Cc1nc(CCNC(=O)C2CC(=O)N(C(C)C)C2)cs1 (centres undefined)	32.3
CCSc1cc(C(=O)NCCNC(=O)Cc2ccccc2)ccn1	-117
CCCc1cc(NC2CCc3nc(CC)nn3C2)n2ncnc2n1 (centres undefined)	-100
Cc1nc(C)n(CC2CCCN2Cc2coc(-c3cccs3)n2)n1 (centres undefined)	-115
Cc1ccc(-c2nc(CCNC(=O)C3CC(=O)N(C)C3)cs2)cc1 (centres undefined)	-98.5
NC1(c2nc(C(F)(F)F)cc(=O)[nH]2)CCCC1	21.9
